Data as given in patent publication US11523610B2, “Regulating plant growth using a diapocarotenoid” (King Abdullah University of Science and Technology, priority 2018, dated 2022).
Entries after “also recorded” stand apart in the source; their conditions may differ.

Columns and labels:
[1] = tested on: maize; experiment: Maize hydroponic growth with anchorene; type: in vivo
Protocol: FIGS. 20A-C show anchorene promotes root growth in maize according to one or more embodiments of the present disclosure. (A) represents the timeline for the hydroponic system for maize growing and anchorene treatment. […] (C) is a histogram quantifying the root and shoot length (cm) of maize seedlings with or without anchorene treatment
Arabidopsis is a dicot model plant. To test the effect of anchorene on monocot plant and crops, the biological functions of anchorene was evaluated on two important crops, rice and maize, under hydroponic conditions. Excitingly, a clear effect of anchorene on rice primary root and crown root growth (FIGS. 19B-E). A clear effect on shoot growth was not observed during this period, which might indicate anchorene specifically regulates root architecture. Similar effect was also examined in maize (FIGS. 20B-C). […] Root growth promoting not only could better anchor the plant, but also increase the volume of the plant root which will facilitate the water and nutrient absorption for the plant.

[2] = tested on: Arabidopsis root growth (Col-0 seedlings); experiment: Primary root length of Arabidopsis seedlings on treated half MS agar plates; type: in vivo
Protocol: β-cyclocitral, β-ionone and D′orenone (β-Apo-13-caroteneone) (FIG. 1A) were purchased from Buchem (Netherlands). Diapo1, Diapo2, Diapo3, Diapo4, Diapo5, and Diapo6 (FIG. 1B) were synthesized by Buchem (Netherlands). Diapo3 was also synthesized together with D6-anchorene and anchorene derivatives according to the protocol of SCHEME 2. Apocarotenoids and diapocarotenoids were dissolved in acetone to make stock solutions (10 mM). For the screening experiments, each chemical was diluted in half strength Murashige and Skoog (MS) media (with 0.5% sucrose+1% agar, 0.5 g/L MES, pH 5.7) to reach indicated concentrations of 25 μM and 5 μM. A stock solution of 10 mM GR24 (Chiralix, Netherlands) was also made by diluting GR24 in acetone. Stock solutions of D15 (100 mM), Norflurazone (5 mM), and CPTA (50 mM) were made in dimethyl sulfoxide (DMSO). For experiments, these compounds were diluted in concentrations of 125 μM D15, 500 nM Norflurazone, or 100 μM CPTA, respectively. 1-Naphthaleneacetic acid (NAA) and N-1-Naphthylphthalamic Acid (NPA) were purchased from Sigma-Aldrich (Germany) and dissolved in water to make 1 mM stock solutions. For NAA and NPA treatments, media containing 0.1 μM NAA and 1 μM NPA were used. Unless otherwise noted, all commercially available compounds were used as provided without further purification.
Sterilized Col-0 and mutants seeds were kept at 4° C. in darkness for 3 days to stimulate seed germination, and then sown on half strength MSO plates (with 0.5% sucrose +1% agar, 0.5g/L MES, pH 5.7) supplemented with the indicated chemicals as described below or in the Figures. Plates were vertically grown in PERCIVAL® growth chambers under long day (16 h light/8 h dark, 22° C., 60% relative humidity, light density: 4000 LUX) LED white light [HYPERIKON® 16 W LED Light Bulb A21, 16 W (100 W Equivalent), CRI92, 1620 Lumens, 4000K (Daylight Glow)] conditions. Light fluorescence rates were measured using a digital LUX meter ([…]® 5025).
ANRs were counted in seedlings vertically grown on half strength MS (with 0.5% sucrose +1% agar, 0.5 g/L MES, pH 5.7) media 8 days post-stratification (dps) using a dissection microscope. To investigate ANR formation after root apical meristems (RAM) excision (ANR-RE), RAM of seedlings were excised using sterile scalpels at 5 dps and then grown for another 3 days prior to counting the number of emerged ANRs. RAM of seedlings were excised at 8 dps and then grown for another 3 days prior to counting the number of emerged LRs. For determining the effect of anchorene on lateral roots, the number of emerged lateral roots were counted using a dissection microscope at 8 dps. For primary root length measurements, seedlings were measured using the publicly available ImageJ software (downloaded from rsbweb.nih.gov/ij/) after taking digital photographs. For adventitious root assay, the number of emerged adventitious roots per plant were counted after 5 days of treatment on plates with or without anchorene.
Six previously identified or predicted diapocarotenoids with chain lengths ranging from C9 to C15 (Diapo1-6) (FIG. 1B) and 3 apocarotenoids (FIG. 1C) were selected to identify new carotenoid-derived signals involved in root development). These compounds were selected because they are available and stable at ambient conditions. Diapo1 (C9) is the expected product formed upon cleavage of all-trans-β-apo-10′ carotenal. Diapo2 (C10) results from cleaving the C7, C8 and C15, C15′ double bonds in different carotenoids and is produced by cyanobacterial retinal-forming enzymes from Cm-apocarotenoids. Diapo3 (C10) is a structural isomer of Diapo2 and a predicted cleavage product that can be formed by cutting the C11, C12 and C11′, C12′ bonds in almost all plant carotenoids (FIGS. 1A, 1B and 17). Diapo4 (C12) results from cleaving the C7, C8 and C13′, C14′ bonds in many carotenoids, and is formed by the CCD1 from apo-10′-lycopenal.

[3] = tested on: PIN3; experiment: PIN3-GFP fluorescence in ANR primordia (pPIN3::PIN3-GFP marker line); type: in vivo, Arabidopsis; settings: 20 μM anchorene
Protocol: For fluorescence intensity quantification of pDR5Rev::GFP and pPIN3::PIN3-GFP marker lines, ImageJ software (rsbweb.nih.gov/ij/) was used after taking confocal microscopy photos. All calculations are background subtracted.
To determine if the effect of anchorene on ANR development is caused by changes in auxin distribution, the activity of anchorene in the presence of NPA was evaluated. […] Vertical grown 5 DAG seedlings on half MSO with indicated treatments were analyzed. The orientation of root growth was measured and then was assigned to one of twelve 30° sectors. […] The auxin efflux carrier PIN3 plays an important role in LR initiation and emergence. Therefore, the effect of anchorene on PIN3 using the pPIN3::PIN3-GFP marker line was examined.

[4] = tested on: rice (Nipponbare); experiment: Rice hydroponic growth with anchorene; type: in vivo; settings: 20 μM anchorene, 6 days
Protocol: FIGS. 19A-E show anchorene promotes root growth in rice according to one or more embodiments of the present disclosure. […] Color photographs (B) and (C) show the comparison of the whole rice plant (B) and the root structure (C) under Mock and Anchorene treated conditions. (D) and (E) show quantification (cm) of the primary root length (D) and shoot length (E) under Mock and Anchorene treated conditions. 20 μM anchorene was used. The Nipponbare ecotype rice seeds were germinated for 4 days, and then transferred to Hoagland media hydroponic system with or without anchorene treatment for another 6 days. Anchorene was changed every 2 days for three times.
For rice, sterilized Nipponbare seeds were kept at 30° C. in darkness for 1 day to stimulate germination and transferred to Petri dishes with half strength Murashige and Skoog (MS) media (with 0.5 g/L MES, pH 5.7) and autoclaved filter paper. Dishes were incubated in darkness for 2 days then exposed to light for 1 day in PERCIVAL® growth chamber (12 h light/12 h dark, 26° C., 55% humidity, 500 umol.m^−2.s^−1). Uniform, healthy rice seedlings were transferred to hydroponic culture (Hoagland) supplied with acetone (Mock) or 20 μM anchorene. […] Crown roots number, as well as shoot and root length and fresh weight were recorded to perform the phenotyping.

C\C(C=O)=C/C=C/C=C(\C)C=O [anchorene, 12,12′-diapocarotene-12,12′-dial]
growth of primary root and lateral roots in maize [1]: greatly promoted
inhibition of primary root growth ([2]; 25 μM, 7 dps): weak inhibition
inhibition of primary root length ([2]; 8 DAG Col-0 seedlings, different concentrations of anchorene (FIG. 3F)): minor inhibition; also recorded: weak inhibitory effect
PIN3 levels (PIN3-GFP fluorescent intensity in ANR primordia) [3]: significantly increased
rice primary root and crown root growth [4]: clear effect
rice shoot growth [4]: not observed
